Assay results published in the NIST ThermoML archive (doi:10.1021/acs.jced.8b00537).
± gives the expanded uncertainty stated by the source.

Assay: xn = mol fraction of the nth substance listed
Conditions: 100 kPa, Liquid; for viscosity: Capillary tube (Ostwald / Ubbelohde) method; for speed of sound: Frequency=3 MHz, Single path-length method; for mass density: Vibrating tube method

O=S(=O)([N-]S(=O)(=O)C(F)(F)F)C(F)(F)F.On1cc[n+](O)c1 [1,3-dihydroxyimidazolium bis(trifluoromethylsulfonyl)imide] + CCCO
Conditions | mass density [kg/m3] | speed of sound [m/s] | viscosity [mPa·s]
293.15 K, x1 = 0.0999 | 1039 ± 2 | 1192.5 ± 6 | 6.428 ± 0.52
293.15 K, x1 = 0.1994 | 1207 ± 3 | 1175.2 ± 6 | 10.56 ± 0.85
293.15 K, x1 = 0.2993 | 1333 ± 3 | 1166.5 ± 6 | 18.74 ± 1.5
293.15 K, x1 = 0.3992 | 1430 ± 3 | 1167 ± 6.1 | 31.05 ± 2.5
293.15 K, x1 = 0.4985 | 1510 ± 3 | 1170.2 ± 6.1 | 46.71 ± 3.8
293.15 K, x1 = 0.5999 | 1576 ± 3 | 1175.3 ± 6.1 | 65.75 ± 5.3
293.15 K, x1 = 0.6989 | 1631 ± 4 | 1182.6 ± 6.2 | 99.34 ± 8.1
293.15 K, x1 = 0.7996 | 1680 ± 4 | 1190.1 ± 6.2 | 120.22 ± 9.8
293.15 K, x1 = 0.8973 | 1719 ± 4 | 1198.4 ± 6.3 | 184.26 ± 15
293.15 K, x1 = 1 | 1746 ± 4 | 1208.2 ± 6.3 | 238.6 ± 20
298.15 K, x1 = 0.0999 | 1034 ± 2 | 1177.8 ± 6 | 5.606 ± 0.45
298.15 K, x1 = 0.1994 | 1202 ± 3 | 1161.9 ± 6 | 9.087 ± 0.73
298.15 K, x1 = 0.2993 | 1328 ± 3 | 1154 ± 6 | 15.55 ± 1.2
298.15 K, x1 = 0.3992 | 1425 ± 3 | 1155 ± 6.1 | 25.3 ± 2
298.15 K, x1 = 0.4985 | 1505 ± 3 | 1158.3 ± 6.1 | 37.27 ± 3
298.15 K, x1 = 0.5999 | 1570 ± 3 | 1163.5 ± 6.1 | 51.4 ± 4.1
298.15 K, x1 = 0.6989 | 1625 ± 4 | 1171 ± 6.2 | 76.1 ± 6.1
298.15 K, x1 = 0.7996 | 1674 ± 4 | 1178.4 ± 6.2 | 90.44 ± 7.3
298.15 K, x1 = 0.8973 | 1713 ± 4 | 1186.7 ± 6.3 | 135.12 ± 11
298.15 K, x1 = 1 | 1740 ± 4 | 1196.6 ± 6.3 | 171.83 ± 14
303.15 K, x1 = 0.0999 | 1030 ± 2 | 1163.2 ± 6 | 4.921 ± 0.4
303.15 K, x1 = 0.1994 | 1197 ± 3 | 1148.7 ± 6 | 7.864 ± 0.63
303.15 K, x1 = 0.2993 | 1323 ± 3 | 1141.6 ± 6 | 13.07 ± 1
303.15 K, x1 = 0.3992 | 1419 ± 3 | 1143.1 ± 6.1 | 20.93 ± 1.7
303.15 K, x1 = 0.4985 | 1499 ± 3 | 1146.7 ± 6.1 | 30.21 ± 2.4
303.15 K, x1 = 0.5999 | 1564 ± 3 | 1152 ± 6.1 | 40.94 ± 3.3
303.15 K, x1 = 0.6989 | 1620 ± 4 | 1159.5 ± 6.2 | 59.33 ± 4.8
303.15 K, x1 = 0.7996 | 1668 ± 4 | 1166.9 ± 6.2 | –
303.15 K, x1 = 0.8973 | 1707 ± 4 | 1175.2 ± 6.3 | 101.71 ± 8.3
303.15 K, x1 = 1 | 1735 ± 4 | 1185.2 ± 6.3 | 127.52 ± 10
308.15 K, x1 = 0.0999 | 1025 ± 2 | 1148.9 ± 6 | 4.34 ± 0.35
308.15 K, x1 = 0.1994 | 1192 ± 3 | 1135.7 ± 6 | 6.844 ± 0.55
308.15 K, x1 = 0.2993 | 1318 ± 3 | 1129.4 ± 6 | 11.09 ± 0.89
308.15 K, x1 = 0.3992 | 1414 ± 3 | 1131.4 ± 6.1 | 17.59 ± 1.4
308.15 K, x1 = 0.4985 | 1494 ± 3 | 1135.2 ± 6.1 | 24.91 ± 2
308.15 K, x1 = 0.5999 | 1559 ± 3 | 1140.7 ± 6.1 | 33.19 ± 2.7
308.15 K, x1 = 0.6989 | 1614 ± 4 | 1148.3 ± 6.2 | 47.17 ± 3.8
308.15 K, x1 = 0.7996 | 1662 ± 4 | 1155.7 ± 6.2 | 54.77 ± 4.4
308.15 K, x1 = 0.8973 | 1702 ± 4 | 1164 ± 6.3 | 78.32 ± 6.3
308.15 K, x1 = 1 | 1729 ± 4 | 1174.1 ± 6.3 | 96.92 ± 7.9
313.15 K, x1 = 0.0999 | 1020 ± 2 | 1134.6 ± 6 | 3.849 ± 0.31
313.15 K, x1 = 0.1994 | 1187 ± 3 | 1122.8 ± 6 | 5.991 ± 0.48
313.15 K, x1 = 0.2993 | 1313 ± 3 | 1117.3 ± 6 | 9.541 ± 0.76
313.15 K, x1 = 0.3992 | 1409 ± 3 | 1119.8 ± 6.1 | 14.92 ± 1.2
313.15 K, x1 = 0.4985 | 1489 ± 3 | 1123.9 ± 6.1 | 20.85 ± 1.7
313.15 K, x1 = 0.5999 | 1553 ± 3 | 1129.5 ± 6.1 | 27.38 ± 2.2
313.15 K, x1 = 0.6989 | 1608 ± 3 | 1137.2 ± 6.2 | 37.93 ± 3.1
313.15 K, x1 = 0.7996 | 1657 ± 4 | 1144.6 ± 6.2 | 43.92 ± 3.5
313.15 K, x1 = 0.8973 | 1696 ± 4 | 1153 ± 6.3 | 61.38 ± 4.9
313.15 K, x1 = 1 | 1723 ± 4 | 1163.1 ± 6.3 | 75.56 ± 6.1
318.15 K, x1 = 0.0999 | 1016 ± 2 | 1120.5 ± 6 | 3.434 ± 0.28
318.15 K, x1 = 0.1994 | 1182 ± 3 | 1110.1 ± 6 | 5.275 ± 0.42
318.15 K, x1 = 0.2993 | 1308 ± 3 | 1105.4 ± 6 | 8.279 ± 0.66
318.15 K, x1 = 0.3992 | 1404 ± 3 | 1108.3 ± 6.1 | 12.81 ± 1
318.15 K, x1 = 0.4985 | 1483 ± 3 | 1112.7 ± 6.1 | 17.64 ± 1.4
318.15 K, x1 = 0.5999 | 1548 ± 3 | 1118.5 ± 6.1 | 22.86 ± 1.8
318.15 K, x1 = 0.6989 | 1603 ± 3 | 1126.3 ± 6.2 | 31.31 ± 2.5
318.15 K, x1 = 0.7996 | 1651 ± 4 | 1133.7 ± 6.2 | 35.76 ± 2.9
318.15 K, x1 = 0.8973 | 1690 ± 4 | 1142.1 ± 6.3 | 49.13 ± 4
318.15 K, x1 = 1 | 1717 ± 4 | 1152.3 ± 6.3 | 59.8 ± 4.8
323.15 K, x1 = 0.0999 | 1011 ± 2 | 1106.4 ± 6 | 3.072 ± 0.25
323.15 K, x1 = 0.1994 | 1178 ± 2 | 1097.4 ± 6 | 4.675 ± 0.38
323.15 K, x1 = 0.2993 | 1303 ± 3 | 1093.6 ± 6 | 7.234 ± 0.58
323.15 K, x1 = 0.3992 | 1398 ± 3 | 1097 ± 6.1 | 11.09 ± 0.89
323.15 K, x1 = 0.4985 | 1478 ± 3 | 1101.6 ± 6.1 | 15.11 ± 1.2
323.15 K, x1 = 0.5999 | 1542 ± 3 | 1107.6 ± 6.1 | 19.34 ± 1.6
323.15 K, x1 = 0.6989 | 1597 ± 3 | 1115.5 ± 6.2 | 25.89 ± 2.1
323.15 K, x1 = 0.7996 | 1645 ± 4 | 1123 ± 6.2 | 29.52 ± 2.4
323.15 K, x1 = 0.8973 | 1684 ± 4 | 1131.4 ± 6.3 | 39.97 ± 3.2
323.15 K, x1 = 1 | 1711 ± 4 | 1141.6 ± 6.3 | 48.29 ± 3.9
328.15 K, x1 = 0.0999 | 1006 ± 2 | 1092.4 ± 6 | 2.759 ± 0.22
328.15 K, x1 = 0.1994 | 1173 ± 2 | 1084.9 ± 6 | 4.171 ± 0.34
328.15 K, x1 = 0.2993 | 1298 ± 3 | 1082 ± 6 | 6.368 ± 0.51
328.15 K, x1 = 0.3992 | 1393 ± 3 | 1085.8 ± 6.1 | 9.679 ± 0.78
328.15 K, x1 = 0.4985 | 1472 ± 3 | 1090.7 ± 6.1 | 13.05 ± 1
328.15 K, x1 = 0.5999 | 1537 ± 3 | 1096.8 ± 6.1 | 16.53 ± 1.3
328.15 K, x1 = 0.6989 | 1592 ± 3 | 1104.8 ± 6.2 | 21.88 ± 1.8
328.15 K, x1 = 0.7996 | 1640 ± 4 | 1112.3 ± 6.2 | 24.73 ± 2
328.15 K, x1 = 0.8973 | 1679 ± 4 | 1120.8 ± 6.3 | 32.99 ± 2.7
328.15 K, x1 = 1 | 1705 ± 4 | 1131.1 ± 6.3 | 39.57 ± 3.2
333.15 K, x1 = 0.0999 | 1002 ± 2 | 1078.5 ± 6 | 2.491 ± 0.2
333.15 K, x1 = 0.1994 | 1168 ± 2 | 1072.4 ± 6 | 3.742 ± 0.3
333.15 K, x1 = 0.2993 | 1293 ± 3 | 1070.4 ± 6 | 5.644 ± 0.45
333.15 K, x1 = 0.3992 | 1388 ± 3 | 1074.7 ± 6.1 | 8.509 ± 0.68
333.15 K, x1 = 0.4985 | 1467 ± 3 | 1080 ± 6.1 | 11.37 ± 0.91
333.15 K, x1 = 0.5999 | 1532 ± 3 | 1086.1 ± 6.1 | 14.29 ± 1.1
333.15 K, x1 = 0.6989 | 1586 ± 3 | 1094.2 ± 6.2 | 18.68 ± 1.5
333.15 K, x1 = 0.7996 | 1634 ± 4 | 1101.8 ± 6.2 | 20.94 ± 1.7
333.15 K, x1 = 0.8973 | 1673 ± 4 | 1110.3 ± 6.3 | 27.57 ± 2.2
333.15 K, x1 = 1 | 1700 ± 4 | 1120.7 ± 6.3 | 32.88 ± 2.7
338.15 K, x1 = 0.0999 | 997 ± 2 | 1064.5 ± 6 | 2.255 ± 0.18
338.15 K, x1 = 0.1994 | 1163 ± 2 | 1060.1 ± 6 | 3.375 ± 0.27
338.15 K, x1 = 0.2993 | 1288 ± 3 | 1059 ± 6 | 5.034 ± 0.4
338.15 K, x1 = 0.3992 | 1383 ± 3 | 1063.7 ± 6.1 | 7.522 ± 0.6
338.15 K, x1 = 0.4985 | 1462 ± 3 | 1069.3 ± 6.1 | 9.989 ± 0.8
338.15 K, x1 = 0.5999 | 1526 ± 3 | 1075.6 ± 6.1 | 12.46 ± 1
338.15 K, x1 = 0.6989 | 1581 ± 3 | 1083.8 ± 6.2 | 16.12 ± 1.3
338.15 K, x1 = 0.7996 | 1628 ± 4 | 1091.5 ± 6.2 | 17.87 ± 1.4
338.15 K, x1 = 0.8973 | 1667 ± 4 | 1100 ± 6.3 | 23.34 ± 1.9
338.15 K, x1 = 1 | 1694 ± 4 | 1110.4 ± 6.3 | 27.69 ± 2.2
343.15 K, x1 = 0.0999 | 992 ± 2 | 1050.7 ± 6 | 2.051 ± 0.17
343.15 K, x1 = 0.1994 | 1158 ± 2 | 1048 ± 6 | 3.057 ± 0.24
343.15 K, x1 = 0.2993 | 1283 ± 3 | 1047.8 ± 6 | 4.514 ± 0.36
343.15 K, x1 = 0.3992 | 1378 ± 3 | 1052.8 ± 6.1 | 6.692 ± 0.54
343.15 K, x1 = 0.4985 | 1456 ± 3 | 1058.9 ± 6.1 | 8.831 ± 0.71
343.15 K, x1 = 0.5999 | 1521 ± 3 | 1065.1 ± 6.1 | 10.95 ± 0.88
343.15 K, x1 = 0.6989 | 1575 ± 3 | 1073.5 ± 6.2 | 14.03 ± 1.1
343.15 K, x1 = 0.7996 | 1623 ± 4 | 1081.2 ± 6.2 | 15.41 ± 1.2
343.15 K, x1 = 0.8973 | 1662 ± 4 | 1089.8 ± 6.3 | 19.94 ± 1.6
343.15 K, x1 = 1 | 1688 ± 4 | 1100.2 ± 6.3 | 23.59 ± 1.9
